ChEMBL document CHEMBL4417633, “Inhibitory polypeptides specific to WNT inhibitors” (2017)
Where a SMILES comes first, the peptide text is derived from it.

Key:
[1] = molecular target: T1, Dickkopf WNT-signaling pathway inhibitor 1 (Rattus norvegicus, UniProt A6I0Z0); test: Inhibition of biotin-labeled rat recombinant DKK1 assessed as reduction in DKK1 interaction with LRP-6/Fc incubated overnight by chemiluminescence based Alpha-screen assay
T1 sequence (A6I0Z0 whole entry): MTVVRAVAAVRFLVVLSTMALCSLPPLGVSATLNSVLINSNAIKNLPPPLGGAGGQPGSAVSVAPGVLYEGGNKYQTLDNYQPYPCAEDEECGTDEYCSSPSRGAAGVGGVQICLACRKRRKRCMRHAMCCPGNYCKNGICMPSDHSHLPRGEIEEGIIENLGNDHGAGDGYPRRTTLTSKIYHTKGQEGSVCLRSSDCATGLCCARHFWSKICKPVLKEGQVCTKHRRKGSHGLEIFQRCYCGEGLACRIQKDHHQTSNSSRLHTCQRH

[2] = molecular target: T2, Dickkopf-related protein 1 (Homo sapiens, UniProt O94907); test: Inhibition of biotin-labeled human recombinant DKK1 assessed as reduction in DKK1 interaction with LRP-6/Fc incubated overnight by chemiluminescence based Alpha-screen assay
T2 sequence (O94907 whole entry): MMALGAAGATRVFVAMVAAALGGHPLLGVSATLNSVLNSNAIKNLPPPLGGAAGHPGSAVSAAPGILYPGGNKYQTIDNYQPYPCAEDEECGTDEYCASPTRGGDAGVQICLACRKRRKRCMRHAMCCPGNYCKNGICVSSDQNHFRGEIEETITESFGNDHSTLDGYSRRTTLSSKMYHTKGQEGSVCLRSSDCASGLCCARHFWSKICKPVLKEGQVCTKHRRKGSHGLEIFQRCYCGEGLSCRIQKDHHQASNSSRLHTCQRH

| SMILES | IC50 [1] [nM] | IC50 [2] [nM] |
| --- | --- | --- |
| CSCC[C@H](NC(=O)[C@@H]1CCCN1C(=O)[C@H](Cc1ccc(O)cc1)NC(=O)[C@H](CS)NC(=O)[C@H](Cc1cnc[nH]1)NC(=O)[C@H](CC(N)=O)NC(=O)[C@H](CC(N)=O)NC(=O)[C@H](CC(N)=O)NC(=O)[C@H](CCCNC(=N)N)NC(=O)[C@H](CS)NC(=O)[C@H](CCC(N)=O)NC(=O)[C@H](Cc1ccccc1)NC(=O)[C@H](Cc1ccc(O)cc1)NC(=O)[C@H](CO)NC(=O)[C@H](C)NC(=O)[C@@H]1CCCN1C(=O)[C@@H](N)CS)C(=O)N[C@@H](CCC(=O)O)C(=O)N[C@@H](Cc1c[nH]c2ccccc12)C(=O)N[C@@H](CCCNC(=N)N)C(=O)N[C@@H](CS)C(=O)N[C@@H](CC(=O)O)C(=O)NCC(=O)N[C@@H](Cc1ccccc1)C(=O)N[C@@H](CCC(N)=O)C(=O)N[C@@H](CC(=O)O)C(=O)N[C@@H](CS)C(=O)N[C@@H](CCC(=O)O)C(=O)N[C@@H](CC(=O)O)C(=O)NCC(=O)N[C@@H](CO)C(=O)N[C@@H](CC(=O)O)C(=O)N[C@@H](CCC(=O)O)C(=O)N[C@@H](CCCCN)C(=O)NCC(=O)N[C@@H](CS)C(=O)N1CCC[C@H]1C(=O)N[C@@H](Cc1ccc(O)cc1)C(=O)N[C@@H](CCCNC(=N)N)C(=O)N[C@H](C(=O)O)[C@@H](C)O (H-CPASYFQCRNNNHCYPMEWRCDGFQDCEDGSDEKGCPYRT-OH) | 40 to 80 | 40 to 80 |
| CSCC[C@H](NC(=O)[C@@H]1CCCN1C(=O)[C@H](Cc1ccc(O)cc1)NC(=O)[C@H](CS)NC(=O)[C@H](Cc1cnc[nH]1)NC(=O)[C@H](CC(N)=O)NC(=O)[C@H](Cc1cnc[nH]1)NC(=O)[C@H](CCCCN)NC(=O)[C@H](CCCNC(=N)N)NC(=O)[C@H](CS)NC(=O)[C@H](CCCCN)NC(=O)[C@H](Cc1ccccc1)NC(=O)[C@H](Cc1ccc(O)cc1)NC(=O)[C@H](CO)NC(=O)[C@H](C)NC(=O)[C@@H]1CCCN1C(=O)[C@@H](N)CS)C(=O)N[C@@H](CCC(=O)O)C(=O)N[C@@H](Cc1c[nH]c2ccccc12)C(=O)N[C@@H](CCCNC(=N)N)C(=O)N[C@@H](CS)C(=O)N[C@@H](CC(=O)O)C(=O)NCC(=O)N[C@@H](Cc1ccccc1)C(=O)N[C@@H](CCC(N)=O)C(=O)N[C@@H](CC(=O)O)C(=O)N[C@@H](CS)C(=O)N[C@@H](CCC(=O)O)C(=O)N[C@@H](CC(=O)O)C(=O)NCC(=O)N[C@@H](CO)C(=O)N[C@@H](CC(=O)O)C(=O)N[C@@H](CCC(=O)O)C(=O)N[C@@H](CCC(N)=O)C(=O)N[C@@H](C)C(=O)N[C@@H](CS)C(=O)N1CCC[C@H]1C(=O)N[C@@H](Cc1ccc(O)cc1)C(=O)N[C@@H](CCCNC(=N)N)C(=O)N[C@H](C(=O)O)[C@@H](C)O (H-CPASYFKCRKHNHCYPMEWRCDGFQDCEDGSDEQACPYRT-OH) | ≤ 1 | ≤ 1 |
| CSCC[C@H](NC(=O)[C@H](Cc1ccccc1)NC(=O)[C@H](CCC(=O)O)NC(=O)[C@H](CC(N)=O)NC(=O)[C@H](CCCNC(=N)N)NC(=O)[C@@H]1CCCN1C(=O)[C@@H](N)CS)C(=O)N[C@@H](CS)C(=O)N[C@@H](C)C(=O)N[C@@H](CC(=O)O)C(=O)N[C@@H](CCCCN)C(=O)N[C@@H](CCSC)C(=O)N[C@@H](CS)C(=O)N[C@@H](Cc1ccccc1)C(=O)N1CCC[C@H]1C(=O)N[C@H](C(=O)N[C@@H](CO)C(=O)N[C@@H](Cc1ccccc1)C(=O)N[C@@H](CC(C)C)C(=O)N[C@@H](CS)C(=O)N[C@@H](CC(=O)O)C(=O)NCC(=O)N[C@@H](CCC(=O)O)C(=O)N[C@@H](CC(N)=O)C(=O)N[C@@H](CC(=O)O)C(=O)N[C@@H](CS)C(=O)N[C@@H](CCC(=O)O)C(=O)N[C@@H](CC(=O)O)C(=O)NCC(=O)N[C@@H](CO)C(=O)N[C@@H](CC(=O)O)C(=O)N[C@@H](CCC(=O)O)C(=O)N[C@@H](CC(=O)O)C(=O)N[C@@H](Cc1ccc(O)cc1)C(=O)N[C@@H](CS)C(=O)N1CCC[C@H]1C(=O)N[C@@H](CO)C(=O)N[C@@H](CCCNC(=N)N)C(=O)N[C@H](C(=O)O)[C@@H](C)O)C(C)C (H-CPRNEFMCADKMCFPVSFLCDGENDCEDGSDEDYCPSRT-OH) | ≤ 1 | ≤ 1 |
| CSCC[C@H](NC(=O)[C@@H]1CCCN1C(=O)[C@H](Cc1ccc(O)cc1)NC(=O)[C@H](CS)NC(=O)[C@H](Cc1cnc[nH]1)NC(=O)[C@H](CCCCN)NC(=O)[C@H](CC(N)=O)NC(=O)[C@H](Cc1cnc[nH]1)NC(=O)[C@H](CCCNC(=N)N)NC(=O)[C@H](CS)NC(=O)[C@H](CCC(N)=O)NC(=O)[C@H](Cc1ccccc1)NC(=O)[C@H](Cc1ccc(O)cc1)NC(=O)[C@H](CO)NC(=O)[C@H](C)NC(=O)[C@@H]1CCCN1C(=O)[C@@H](N)CS)C(=O)N[C@@H](CCC(=O)O)C(=O)N[C@@H](Cc1c[nH]c2ccccc12)C(=O)N[C@@H](CCCNC(=N)N)C(=O)N[C@@H](CS)C(=O)N[C@@H](CC(=O)O)C(=O)NCC(=O)N[C@@H](Cc1ccccc1)C(=O)N1CCC[C@H]1C(=O)N[C@@H](CC(=O)O)C(=O)N[C@@H](CS)C(=O)N[C@@H](CCC(=O)O)C(=O)N[C@@H](CC(=O)O)C(=O)NCC(=O)N[C@@H](CO)C(=O)N[C@@H](CC(=O)O)C(=O)N[C@@H](CCC(=O)O)C(=O)N[C@@H](CC(C)C)C(=O)N[C@@H](CO)C(=O)N[C@@H](CS)C(=O)N1CCC[C@H]1C(=O)N[C@@H](Cc1ccc(O)cc1)C(=O)N[C@@H](CCCNC(=N)N)C(=O)N[C@H](C(=O)O)[C@@H](C)O (H-CPASYFQCRHNKHCYPMEWRCDGFPDCEDGSDELSCPYRT-OH) | ≤ 1 | ≤ 1 |
| CC[C@H](C)[C@H](NC(=O)[C@H](CCC(=O)O)NC(=O)[C@H](CC(=O)O)NC(=O)[C@H](CO)NC(=O)CNC(=O)[C@H](CC(=O)O)NC(=O)[C@@H](NC(=O)[C@H](CS)NC(=O)[C@H](CC(=O)O)NC(=O)[C@H](Cc1cnc[nH]1)NC(=O)[C@H](Cc1ccccc1)NC(=O)CNC(=O)[C@H](CC(=O)O)NC(=O)[C@H](CS)NC(=O)[C@H](CCCNC(=N)N)NC(=O)[C@H](Cc1c[nH]c2ccccc12)NC(=O)[C@H](CCC(=O)O)NC(=O)[C@H](CCSC)NC(=O)[C@@H]1CCCN1C(=O)[C@H](Cc1ccc(O)cc1)NC(=O)[C@H](CS)NC(=O)[C@H](Cc1cnc[nH]1)NC(=O)[C@H](CC(N)=O)NC(=O)[C@H](Cc1cnc[nH]1)NC(=O)[C@H](Cc1cnc[nH]1)NC(=O)[C@H](CCCNC(=N)N)NC(=O)[C@H](CS)NC(=O)[C@H](CCC(N)=O)NC(=O)[C@H](Cc1ccccc1)NC(=O)[C@H](Cc1ccc(O)cc1)NC(=O)[C@H](CO)NC(=O)[C@H](C)NC(=O)[C@@H]1CCCN1C(=O)[C@@H](N)CS)C(C)C)C(=O)NCC(=O)N[C@@H](CS)C(=O)N1CCC[C@H]1C(=O)N[C@@H](Cc1ccc(O)cc1)C(=O)N[C@@H](CCCNC(=N)N)C(=O)N[C@H](C(=O)O)[C@@H](C)O (H-CPASYFQCRHHNHCYPMEWRCDGFHDCVDGSDEIGCPYRT-OH) | ≤ 1 | ≤ 1 |
| CSCC[C@H](NC(=O)[C@@H]1CCCN1C(=O)[C@H](Cc1ccc(O)cc1)NC(=O)[C@H](CS)NC(=O)[C@H](Cc1cnc[nH]1)NC(=O)[C@H](CCCCN)NC(=O)[C@H](Cc1ccc(O)cc1)NC(=O)[C@H](CC(N)=O)NC(=O)CNC(=O)[C@H](CS)NC(=O)[C@H](CCC(N)=O)NC(=O)[C@H](Cc1ccccc1)NC(=O)[C@H](Cc1ccc(O)cc1)NC(=O)[C@H](CO)NC(=O)[C@H](C)NC(=O)[C@@H]1CCCN1C(=O)[C@@H](N)CS)C(=O)N[C@@H](CCC(=O)O)C(=O)N[C@@H](Cc1c[nH]c2ccccc12)C(=O)N[C@@H](Cc1cnc[nH]1)C(=O)N[C@@H](CS)C(=O)N[C@@H](CC(=O)O)C(=O)NCC(=O)N[C@@H](Cc1ccccc1)C(=O)N[C@@H](CCC(N)=O)C(=O)N[C@@H](CC(=O)O)C(=O)N[C@@H](CS)C(=O)N[C@H](C(=O)N[C@@H](CC(=O)O)C(=O)NCC(=O)N[C@@H](CO)C(=O)N[C@@H](CC(=O)O)C(=O)N[C@@H](CCC(=O)O)C(=O)N[C@@H](CCCCN)C(=O)N[C@@H](C)C(=O)N[C@@H](CS)C(=O)N1CCC[C@H]1C(=O)N[C@@H](Cc1ccc(O)cc1)C(=O)N[C@@H](CCCNC(=N)N)C(=O)N[C@H](C(=O)O)[C@@H](C)O)C(C)C (H-CPASYFQCGNYKHCYPMEWHCDGFQDCVDGSDEKACPYRT-OH) | ≤ 1 | ≤ 1 |
| CSCC[C@H](NC(=O)[C@@H]1CCCN1C(=O)[C@H](Cc1ccc(O)cc1)NC(=O)[C@H](CS)NC(=O)[C@H](Cc1cnc[nH]1)NC(=O)[C@@H]1CCCN1C(=O)[C@H](Cc1cnc[nH]1)NC(=O)[C@H](CCCCN)NC(=O)[C@H](CC(C)C)NC(=O)[C@H](CS)NC(=O)[C@H](CCC(N)=O)NC(=O)[C@H](Cc1ccccc1)NC(=O)[C@H](Cc1ccc(O)cc1)NC(=O)[C@H](CO)NC(=O)[C@H](C)NC(=O)[C@@H]1CCCN1C(=O)[C@@H](N)CS)C(=O)N[C@@H](CCC(=O)O)C(=O)N[C@@H](Cc1c[nH]c2ccccc12)C(=O)N[C@@H](CCCNC(=N)N)C(=O)N[C@@H](CS)C(=O)N[C@@H](CC(=O)O)C(=O)NCC(=O)N[C@@H](Cc1ccccc1)C(=O)N[C@@H](CC(=O)O)C(=O)N[C@@H](CC(=O)O)C(=O)N[C@@H](CS)C(=O)N[C@@H](CCC(=O)O)C(=O)N[C@@H](CC(=O)O)C(=O)NCC(=O)N[C@@H](CO)C(=O)N[C@@H](CC(=O)O)C(=O)N[C@@H](CCC(=O)O)C(=O)N[C@H](C(=O)NCC(=O)N[C@@H](CS)C(=O)N1CCC[C@H]1C(=O)N[C@@H](Cc1ccc(O)cc1)C(=O)N[C@@H](CCCNC(=N)N)C(=O)N[C@H](C(=O)O)[C@@H](C)O)[C@@H](C)O (H-CPASYFQCLKHPHCYPMEWRCDGFDDCEDGSDETGCPYRT-OH) | ≤ 1 | ≤ 1 |
